Reference: publication PMC4260220 (Scientific Reports, 2014)

Biological target: T1, PPARγ (Homo sapiens, UniProt P37231)
T1 sequence (P37231 231-505 limits assumed): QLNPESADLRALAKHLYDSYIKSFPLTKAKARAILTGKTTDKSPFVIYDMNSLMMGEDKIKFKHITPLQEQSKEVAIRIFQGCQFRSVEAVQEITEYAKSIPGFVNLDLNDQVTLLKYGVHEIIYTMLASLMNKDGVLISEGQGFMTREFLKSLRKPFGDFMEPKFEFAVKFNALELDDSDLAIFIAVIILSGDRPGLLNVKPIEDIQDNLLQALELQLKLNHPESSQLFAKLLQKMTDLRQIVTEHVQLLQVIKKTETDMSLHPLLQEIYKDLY
Experiment: competitive TR-FRET binding assay

SMILES: CC(C)=CCC[C@](C)(O)[C@H]1CC[C@]2(C)[C@@H]1[C@H](O)C[C@@H]1[C@@]3(C)CC[C@H](O)C(C)(C)[C@@H]3[C@@H](O)C[C@]12C [PPT, 20(S)-5α-Dammar-24-ene-3β,6α,12β,20-tetrol]
- Ki: 4.2 µM
